US20230226065A1, “ANTI-INFLAMMATORY COMPOSITIONS, METHODS AND USES THEREOF” (COMVITA LIMITED, priority 2020, published 2023)

Tests used:
[1] = tested on: COX-2 protein expression in THP-1 cells; assay: LPS-induced COX-2 protein expression in THP-1 cells (Western blot); format: cell-based, human
Description: THP-1 cells were seeded in 12-well tissue-culture treated plates at a density of 500,000 cells/well in growth media overnight. […] Cells were washed with cold PBS and lysed in RIPA buffer containing protease inhibitors (Sigma P2714) for 15 minutes on ice. Debris was pelleted by centrifugation at 14,000×g for 15 min and lysate supernatants were frozen at −80° C. for later analysis by western blot.
Western blots for semi-quantitative COX-2 (Abcam ab188183) protein expression were conducted on THP-1 monocyte cells lysed with RIPA buffer containing protease inhibitors. A total of 10 μg protein was loaded onto precast 10% acrylamide gels (BioRad, NZ) then separated by electrophoresis at 120 V at room temperature. […] The membranes were then incubated with the primary antibody that correspond to the protein of interest for 1 h. […] Western blot images were captured with an Amersham™ Imager 600 (GE Healthcare, Chicago, Ill., USA) and densitometry measurement of protein bands was analysed with the accompanying image analysis software.
For analysis of Western blots, densitometry measurements from the proteins of interest were normalised to the densitometry of p-actin for each sample. […] The significance level was set at p≤0.05.

THP-1 cells = assay: WST-1 cell viability assay, LPS-stimulated THP-1 cells; format: cell-based; settings: 10 μg/mL dexamethasone; LPS co-stimulation 18 hours
Description: Human monocytic THP-1 cells were seeded in 96-well tissue-culture treated plates at a density of 50,000 cells/well in growth media (RPMI media supplemented with 10% fetal bovine serum, 2 mM L-glutamine and penicillin-streptomycin) overnight. […] Control wells were treated with hydrogen peroxide (0, 0.5, 1, and 2 mM) for 1 hour prior to addition of WST-1 reagent (Roche, NZ). WST-1 reagent was added to all wells at the end of the 18 hour incubation period, and absorbance readings were subsequently measured 30 min and 1 h and 10 mins after WST-1 addition. Cell viability expressed the percent change from the LPS-stimulated PBS control.

[2] = tested on: MMP-9 secretion in differentiated THP-1 cells; assay: LPS induced MMP-9 secretion in differentiated THP-1 cells (ELISA); format: cell-based, human; settings: 6 μM Azithromycin positive control; LPS 1 μg/mL; P=0.00
Description: THP-1 cells (ATCC, ATCTIB202) were grown in RPMI-1640 (Gibco, 11875093)+0.05 mM 2-mercaptoethanol+10% fetal calf serum (FCS)+1% pen-strep. For experiments, the cells were cultured in RPMI-1640 medium with 10% fetal bovine serum (FBS) only.
THP-1 monocyte cells were seeded at a density of 2.5×10^5 cells/ml in 96-well plates and differentiated into macrophages using 10 ng/ml of phorbol 12-myristate 13-acetate (PMA) (Bergin et al) (Sigma, P1585-1MG, Lot #SLBX889, 100% purity) for 72 hours. PMA media was then removed from the differentiated THP-1 cells, the cells were then washed once in RPMI-1640 media and then left to rest for 5 hours.
The differentiated THP-1 cells were stimulated with LPS from E. coli 055:B5 (Sigma, L6529; Lot #037K4068). LPS tested at a concentration of 1 μg/ml (Kong et al). […] After 24 hours, the cell culture media was collected and measured for MMP-9 concentration using MMP-9 ELISA (R&D systems, RDSDY91105 lot #P239459 and DY008 Lot #P239900). […]
In order to better capture the variability, each treatment was done at least in triplicate in each plate (2 plates). Media from the triplicate wells were pooled and analysed in duplicates for the MMP-9 ELISA. […]

active MMP-9 = assay: Gelatin gel zymography, active MMP-9 band; format: biochemical; settings: NNGH 2.6 μM in developing buffer; active MMP-9
Description: Novex™ 10% Zymogram Plus (Gelatin) Protein Gels (15 wells) were purchased from Thermo Fisher Scientific Inc. (Auckland, New Zealand). All chemicals required for the zymogram analysis were also purchased from Thermo Fisher, these include Novex™ Sharp Pre-stained Protein Standard, Novex Tris-Glycine SDS sample buffer, Novex Tris-Glycine SDS running buffer, Novex Zymogram renaturing buffer and Novex Zymogram developing buffer. […] Gelatin gel zymography was performed as an independent technique to confirm the inhibition of MMP-9 from 3,6,7-trimethyllumazine. This technique uses a non-reducing SDS-PAGE (sodium dodecyl sulfate polyacrylamide gel electrophoresis) gel embedded with gelatin. Proteins are migrated and separated during electrophoresis. The SDS is removed after electrophoresis and the gel is then incubated with essential cofactors required for enzymatic activity. The embedded gelatin can be digested by MMP-9, resulting in clear bands on a dark blue background after staining with Coomassie blue dyes. The gelatinase activity is represented by band densitometry, which can be assessed with image analysis software. […]
After incubation, the gelatin gel was rinsed with water for three times (5 min each) under gentle agitation. […] MMP-9 activities were analysed using densitometry on ImageJ Version 1.52a. […]

recombinant MMP-9 enzyme [3] = biological target: T1, recombinant MMP-9 enzyme (Homo sapiens, UniProt P14780); assay: MMP-9 inhibitor screening assay (fluorometric); format: biochemical; settings: NNGH inhibitor control
T1 construct: purchased Abcam ab139449
T1 sequence (P14780 94-707): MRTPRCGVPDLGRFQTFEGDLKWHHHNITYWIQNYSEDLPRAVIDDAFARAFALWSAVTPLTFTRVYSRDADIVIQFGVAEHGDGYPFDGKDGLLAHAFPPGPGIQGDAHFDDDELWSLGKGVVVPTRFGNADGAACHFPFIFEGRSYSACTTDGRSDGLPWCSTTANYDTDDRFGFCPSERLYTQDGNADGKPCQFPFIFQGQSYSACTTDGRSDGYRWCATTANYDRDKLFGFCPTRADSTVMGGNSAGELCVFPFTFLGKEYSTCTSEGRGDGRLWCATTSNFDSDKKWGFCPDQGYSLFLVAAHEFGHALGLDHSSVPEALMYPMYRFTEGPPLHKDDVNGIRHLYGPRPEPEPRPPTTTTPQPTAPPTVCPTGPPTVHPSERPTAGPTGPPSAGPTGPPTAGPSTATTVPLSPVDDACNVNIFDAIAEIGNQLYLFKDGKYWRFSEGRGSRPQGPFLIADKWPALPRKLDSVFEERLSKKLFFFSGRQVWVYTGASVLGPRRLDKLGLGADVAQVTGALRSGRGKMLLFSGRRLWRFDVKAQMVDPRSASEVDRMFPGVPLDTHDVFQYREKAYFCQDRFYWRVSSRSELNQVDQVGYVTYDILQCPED
Description: The MMP-9 inhibitor screening assay (fluorometric) kits were purchased from Abcam (Melbourne, Australia). The fluorometric kit contains the recombinant MMP-9 enzyme, MMP inhibitor NNGH (N-isobutyl-N-[4-methoxyphenylsulfonyl]glycyl hydroxamic acid), MMP fluorogenic substrate solubilised in DMSO, the fluorometric assay buffer and 96-well clear microplate.
Inhibitory activity on MMP-9 was assessed using the commercial MMP-9 inhibitor screening assay kit. MMP-9 activity was expressed as a change in fluorescence intensity measured using SpectraMax iD3 multi-mode microplate reader (Molecular Devices, San Jose, USA).
The assay employs a FRET-tagged (fluorescence resonance energy transfer) substrate, which can be hydrolysed by MMP-9 at a specific site (Abcam, 2018). The cleavage of the FRET substrate releases the quenched fluorescent Mca (7-methoxycoumarin-4-yl)-acetyl group (Abcam, 2018). The kit employs a quenched fluorogenic substrate Mca-Pro-Leu-Gly-Leu-Dpa-Ala-Arg-NH2, where the Mca fluorescence is quenched by Dpa until cleavage by MMPs. The amount of fluorescent product yielded by MMP-9 can be detected fluorometrically and it is proportional to the enzyme activity. Fluorescence were measured at ex320 nm-em395 nm to minimise fluorescence interference from 3,6,7-trimethyllumazine at ex330 nm-em470 nm. […]

recombinant MMP-9 enzyme [4] = biological target: T1, recombinant MMP-9 enzyme; assay: MMP-9 inhibitor screening assay (colorimetric); format: biochemical; settings: NNGH at 1.3 μM
Source text: The MMP-9 inhibitor screening assay (colorimetric) kits were purchased from Abcam (Melbourne, Australia). The kit contains the recombinant MMP-9 enzyme, MMP inhibitor NNGH, MMP chromogenic substrate, the colorimetric assay buffer and 96-well clear microplate.
The colorimetric kit uses a thiopeptide as a chromogenic substrate (Ac-PLG-[2-mercapto-4-methyl-pentanoyl]-LG-OC2H5), which can be hydrolysed by MMPs to produce a sulfhydryl group. This intermediate product further reacts with DTNB [5,5′-dithiobis(2-nitrobenzoic acid), Ellman's reagent] to form 2-nitro-5-thiobenzoic acid, which can be detected by absorbance at 412 nm. The change in absorbance was measured using the SpectraMax iD3 multi-mode microplate reader (Molecular Devices, San Jose, USA). The assays are performed on a convenient 96-wells microplate with a final reaction volume of 100 μL. Prior to the assay, all testing samples and inhibitor controls were incubated with MMP-9 for 60 min at 37° C. […] The absorbance was measured at 1 min intervals during the first 20 min, then 10 min intervals till the end of assay.
Recombinant MMP-9 and the chromogenic substrate were used as the positive control to represent 100% enzyme activity. […] A range of 3,6,7-trimethyllumazine concentrations were diluted with the colorimetric assay buffer to measure the absorbance of the reaction product.

COc1ccc2c(c1)c(CC(=O)O)c(C)n2C(=O)c1ccc(Cl)cc1 [Indomethacin, reference compound]
reduction of LPS-induced COX-2 expression ([1]; indomethacin 10 μmol/L): did not significantly reduce

C[C@@H]1C[C@H]2[C@@H]3CCC4=CC(=O)C=C[C@]4(C)[C@@]3(F)[C@@H](O)C[C@]2(C)[C@@]1(O)C(=O)CO [Dexamethasone, reference compound]
cell death (WST-1 cell viability) (THP-1 cells): did not induce cell death
COX-2 Relative expression (mean ± SEM) ([1]; 10 μg/mL, LPS 24 hours, LPS positive control 1.26 ± 0.11, n=6): 0.85 ± 0.07

CC[C@H]1OC(=O)[C@H](C)[C@@H](O[C@H]2C[C@@](C)(OC)[C@@H](O)[C@H](C)O2)[C@H](C)[C@@H](O[C@@H]2O[C@H](C)C[C@H](N(C)C)[C@H]2O)[C@](C)(O)C[C@@H](C)CN(C)[C@H](C)[C@@H](O)[C@]1(C)O [Azithromycin]
effect on MMP-9 secretion [2]: inhibits MMP-9 secretion

COc1ccc(S(=O)(=O)N(CC(=O)NO)CC(C)C)cc1 [NNGH, N-isobutyl-N-[4-methoxyphenylsulfonyl]glycyl hydroxamic acid, reference compound]
inhibition of gelatinase activity (active MMP-9): completely inhibited
change in fluorescence (MMP-9 activity) (recombinant MMP-9 enzyme [3]): almost no change in fluorescence
inhibition of MMP-9 activity (recombinant MMP-9 enzyme [4]): inhibited most of the MMP-9 activity
